The compounds below were run against T1, BTK (Homo sapiens, UniProt Q06187) (assay: In vitro BTK kinase assay (BTK-POLYGAT-LS)). Settings: IC50 (10 uM ATP).
T1 construct: purchased Upstate 14-552
Assay type: biochemical
Protocol: In vitro BTK Kinase Assay
The purpose of the BTK in vitro assay is to determine compound potency against BTK through the measurement of IC50. […] For a typical assay, a 24 μL aliquot of a ATP/peptide master mix (final concentration; ATP 10 μM, polyGAT 100 nM) in kinase buffer (10 mM Tris-HCl pH 7.5, 10 mM MgCl2, 200 μM Na3PO4, 5 mM DTT, 0.01% Triton X-100, and 0.2 mg/ml casein) is added to each well. […] The assay is incubated for 30 minutes before being stopped with 28 μL of a 50 mM EDTA solution. […] The plate is covered and incubated for 45 minutes at room temperature.

T1 sequence (Q06187 whole entry): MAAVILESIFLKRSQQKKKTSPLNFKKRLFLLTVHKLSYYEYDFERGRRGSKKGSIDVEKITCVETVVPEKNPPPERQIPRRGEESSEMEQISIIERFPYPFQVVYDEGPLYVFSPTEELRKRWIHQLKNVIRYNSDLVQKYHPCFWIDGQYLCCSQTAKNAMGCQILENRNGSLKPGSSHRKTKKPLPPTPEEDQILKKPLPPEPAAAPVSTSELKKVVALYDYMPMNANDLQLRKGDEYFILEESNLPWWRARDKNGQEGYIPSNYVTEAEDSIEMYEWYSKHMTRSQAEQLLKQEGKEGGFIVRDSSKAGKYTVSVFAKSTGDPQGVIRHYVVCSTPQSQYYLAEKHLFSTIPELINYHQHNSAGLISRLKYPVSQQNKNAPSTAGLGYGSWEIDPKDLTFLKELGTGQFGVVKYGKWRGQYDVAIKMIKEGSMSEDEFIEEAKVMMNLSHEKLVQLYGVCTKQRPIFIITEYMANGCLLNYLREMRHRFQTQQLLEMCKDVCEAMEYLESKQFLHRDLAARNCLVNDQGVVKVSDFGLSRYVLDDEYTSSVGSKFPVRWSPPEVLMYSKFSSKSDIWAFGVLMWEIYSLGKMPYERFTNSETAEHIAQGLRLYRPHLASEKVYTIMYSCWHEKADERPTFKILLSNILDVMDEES

| Structure (SMILES) | IC50 |
| --- | --- |
| O=C(CNc1cc(Cl)cc(Cl)c1)N1CCC[C@H](Nc2ncnc3[nH]ccc23)[C@@H]1C(F)(F)F [Compound 11] | 100 to 999 nM |
| CC1C(N(C)c2ncnc3[nH]ncc23)CCCN1C(=O)CNc1cc(Cl)cc(Cl)c1 (stereo not drawn) [Compound 55] | < 100 nM |
| C[C@@H]1[C@@H](Nc2ncnc3[nH]ncc23)CCCN1C(=O)CNc1cc(F)cc(Cl)c1 [Compound 24] | 1000 to 10000 nM |
| C[C@H]1[C@H](Nc2ncnc3[nH]ncc23)CCCN1C(=O)CNc1cc(Cl)cc(Cl)c1 [Compound 30] | 100 to 999 nM |
| O=C(CNc1cc(Cl)cc(Cl)c1)N1CCOCC(Nc2ncnc3[nH]cnc23)C1 (stereo not drawn) [Compound 50] | 100 to 999 nM |
| CN(c1ncnc2[nH]ccc12)C1CCCN(C(=O)CNc2ccccc2)C1C(F)(F)F (stereo not drawn) [Compound 15] | < 100 nM |
| O=C(CNc1cc(Cl)cc(Cl)c1)N1CCC[C@@H](Nc2c(-c3ccc(C(=O)N4CCC(O)CC4)cc3)cnc3[nH]ccc23)C1 [Compound 2] | < 100 nM |
| CC1C(Nc2ncnc3[nH]ncc23)CCCN1C(=O)CNc1cc(Cl)cc(C(F)(F)F)c1 (stereo not drawn) [Compound 58] | < 100 nM |
| CN(C)C(=O)CN(c1ncnc2[nH]ccc12)[C@@H]1CCCN(C(=O)CNc2cc(Cl)cc(Cl)c2)C1 [Compound 40] | 100 to 999 nM |
| C[C@@H]1[C@@H](Nc2ncnc3[nH]ncc23)CCCN1C(=O)CNc1cc(Cl)cc(Cl)c1 [Compound 28] | 100 to 999 nM |
| O=C(CNc1ccccc1)N1CCCC(Nc2ncnc3[nH]ccc23)C1C(F)(F)F (stereo not drawn) [Compound 18] | 100 to 999 nM |
| C[C@@H]1C[C@@H]2CCN(C(=O)CNc3cc(Cl)cc(Cl)c3)C[C@@H]2N1c1ncnc2[nH]ccc12 [Compound 46] | < 100 nM |
| O=C(CNc1cc(Cl)cc(Cl)c1)N1CCC[C@@H](Nc2ncnc3[nH]cc(F)c23)C1 [Compound 6] | 100 to 999 nM |
| O=C(CNc1cc(Cl)cc(Cl)c1)N1CCCC(Nc2ncnc3[nH]ccc23)C1C(F)(F)F (stereo not drawn) [Compound 19] | < 100 nM |

Continued, values first:

| IC50 | Structure (SMILES) |
| --- | --- |
| > 10000 nM | CN(c1ncnc2c1CCC(=O)N2)[C@H]1CCCN(C(=O)CNc2cc(Cl)cc(Cl)c2)C1 [Compound 129] |
| > 10000 nM | O=C(CNc1cc(Cl)cc(Cl)c1)N1CC[C@H](Nc2ncnc3[nH]ncc23)C1 [Compound 147] |
| 100 to 999 nM | CN(c1ncnc2[nH]ccc12)[C@@H]1CCCN(C(=O)CNc2cc(F)cc(Cl)c2)C1 [Compound 165] |
| < 100 nM | Nc1cc(N2CCC3CCN(C(=O)CNc4cc(Cl)cc(Cl)c4)CC32)ncn1 (stereo not drawn) [Compound 159] |
| > 10000 nM | O=C(CNc1cc(Cl)cc(Cl)c1)N1CC[C@@H](Nc2ncnc3[nH]ncc23)C1 [Compound 153] |
| > 10000 nM | CN(c1ncnc2[nH]ncc12)[C@H]1CCCN(C(=O)CNc2cc(C(F)(F)F)cc(C(F)(F)F)c2)C1 [Compound 150] |
| 100 to 999 nM | CN(c1ncnc2[nH]ccc12)[C@H]1CCCN(C(=O)CNc2cc(Cl)cc(C(F)(F)F)c2)C1 [Compound 142] |
| > 10000 nM | O=C(CNc1ccccc1Cl)N1CCC[C@H](Nc2ncnc3[nH]ccc23)C1 [Compound 199] |
| 1000 to 10000 nM | O=C(CNc1cccc(Cl)c1)N1CCC[C@H](Nc2ncnc3[nH]ncc23)C1 [Compound 201] |
| > 10000 nM | CC(=O)Nc1cc(N[C@H]2CCCN(C(=O)CNc3cc(Cl)cc(Cl)c3)C2)ncn1 [Compound 109] |
| > 10000 nM | O=C(CNc1ccc(C(F)(F)F)cc1)N1CCC[C@H](Nc2ncnc3[nH]ncc23)C1 [Compound 198] |
| 100 to 999 nM | O=C(CNc1cc(Cl)cc(Cl)c1)N1CC(Nc2ncnc3[nH]ccc23)Cc2ccccc21 (stereo not drawn) [Compound 190] |
| > 10000 nM | CCn1cnc2cnc(N[C@H]3CCCN(C(=O)CNc4cc(Cl)cc(Cl)c4)C3)cc21 [Compound 158] |
| > 10000 nM | N#Cc1c(N)ncnc1N[C@H]1CCCN(C(=O)CNc2cc(Cl)cc(Cl)c2)C1 [Compound 161] |
| > 10000 nM | O=C(CNc1cc(Cl)cc(Cl)c1)N1CCC(c2ccccc2)C(Nc2ncnc3[nH]ccc23)C1 (stereo not drawn) [Compound 137] |
| < 100 nM | CC1C(Nc2ncnc3[nH]ccc23)CCCN1C(=O)[C@@H](C)Nc1cc(Cl)cc(Cl)c1 (stereo partly drawn) [Compound 81] |

Reference: patent publication US9273028B2, “Heterocyclic tyrosine kinase inhibitors” (Biogen MA Inc., priority 2010, dated 2016)
